Values after ≈ are worked out from the molar mass of the structure shown. Values joined by “and” are separate entries in the source; they are usually repeats but may differ in a detail not shown here. Equal entries are not always repeated. Where two headings read alike, the source gives them in different places.
How the values were obtained:
E. coli ΔcirA = test: MIC, Keio mutant; type: cell-based, Escherichia coli
Procedure: (§1) All bacterial strains (see description and sources Table S1) were stored at −80 °C, and grown on tryptone soya agar (TSA) at 35 °C. The iron-deprived (ID)-MHBCA (cation-adjusted Muller-Hinton Broth, Becton Dickinson, Mississauga, ON, Canada) medium was prepared as reported by refs. [21],[50]. Briefly, MHBCA was treated with 10% Chelex® 50-100 mesh (Sigma) and stirred for 6 h at room temperature. The resin was removed by filtration. Divalent Ca^2+ (CaCl2), Mg^2+ (MgCl2), and Zn^2+(ZnSO4), were then added in the iron-depleted medium at 22, 12, and 1 μg/ml respectively. Finally, the pH was adjusted to 7.3, and the medium was sterilized with a 0.2-μm filter. Regular MHBCA (i.e., not treated with Chelex®) was used to compare the inhibitory activity of conjugates in iron-sufficient conditions.
(§2) Minimal inhibitory concentrations (MICs) were performed using a broth microdilution technique according to the Clinical and Laboratory Standards Institute (CLSI) guidelines. MICs were determined in MHBCA and in ID-MHBCA. To check the impact of β-lactamases, MICs in the presence of a β-lactamase inhibitor were also determined. The inhibitor was homogenized at 2X the final concentration and added to the bacterial inoculum just before distributing cells into the wells containing the drug dilutions. The final concentration of each inhibitor was 4 μg/mL for clavulanic acid (tested against K. pneumoniae) and 200 μg/mL for 3-aminophenylboronic acid (tested against P. aeruginosa and A. baumannii).

E. coli ΔfhuA = test: MIC, Keio mutant; type: cell-based, Escherichia coli
Procedure: as §1, §2

E. coli Δfiu = test: MIC, Keio mutant; type: cell-based, Escherichia coli
Procedure: as §1, §2

E. coli MC4100 = test: Bactericidal effect in the uptake assay (CFU counts); type: cell-based, Escherichia coli; details: 200 μM drug; for dCFU (Δlog10 CFU/mL, count with drug minus growth control): time 0 h, single replicates
Text: The bactericidal effect determined at each time point was the difference in the concentration of bacteria in the assay tube with antibiotic and that measured in the growth control tube without drug (ΔLog10 CFU/mL). The normal distribution of the data was verified with the Shapiro–Wilk test and the statistical analysis was a comparison of repeated measures ANOVA (*p ≤ 0.05, **p ≤ 0.01, ***p ≤ 0.001) between each time point relatively to the 0-h time point.

K. pneumoniae ATCC 13883 = test: MIC, broth microdilution (CLSI); type: cell-based, Klebsiella pneumoniae; details: for MIC with β-lactamase inhibitor (βI): + 4 μg/mL clavulanic acid
Procedure: as §1, with “conditions. The resin used for Chelex treatment was always fresh and had never been regenerated, ensuring consistent iron removal.” for “conditions.”
as §2

[1] = test system: P. aeruginosa 2302 MexAB, MexCD, MexEF upregulated; test: MIC, efflux pump overexpressing strain; type: cell-based, Pseudomonas aeruginosa
Procedure: as §2

A. baumannii ATCC 19606 = test: MIC, broth microdilution (CLSI); type: cell-based, Acinetobacter baumannii; details: for MIC in combination with PAβN: + 25 µg/mL PAβN
Procedure: as §1, with “conditions. The resin used for Chelex treatment was always fresh and had never been regenerated, ensuring consistent iron removal.” for “conditions.”
as §2

[2] = test system: P. aeruginosa 1625 ΔmexAB-oprM, ΔmexEF-oprN; test: MIC, efflux pump mutant; type: cell-based, Pseudomonas aeruginosa
Procedure: as §2

[3] = test system: P. aeruginosa 1624 ΔmexCD-oprJ, ΔmexEF-oprN; test: MIC, efflux pump mutant; type: cell-based, Pseudomonas aeruginosa
Procedure: as §2

E. coli ATCC 25922 = test: MIC, broth microdilution (CLSI); type: cell-based, Escherichia coli
Procedure: as §1, §2

E. coli lptD4213 = test: MIC, hyperpermeable mutant; type: cell-based, Escherichia coli
Procedure: as §1, with “conditions. The resin used for Chelex treatment was always fresh and had never been regenerated, ensuring consistent iron removal.” for “conditions.”
as §2

[4] = ID-MHBCA (−), 0 µg/mL supplemental iron
[5] = ID-MHBCA + 0.1 µg/mL supplemental iron
[6] = ID-MHBCA + 1 µg/mL supplemental iron
[7] = ID-MHBCA, 0 and 1 µg/mL supplemental iron (Table S2)
[8] = ID-MHBCA, 1 versus 0 µg/mL supplemental iron (peer review file table)
[9] = iron-deprived ID-MHBCA (−), 0 µg/mL supplemental iron

N[C@@H](C(=O)N[C@@H]1C(=O)N2C(C(=O)O)=C(Cl)CC[C@H]12)c1ccccc1 [LOR, loracarbef, reference compound]
MIC (E. coli ΔcirA; ID-MHBCA): 13 µM (≈ 4.55 µg/mL)
MIC (E. coli ΔcirA; MHBCA): 13 µM (≈ 4.55 µg/mL)
MIC (E. coli ΔfhuA; ID-MHBCA): 6.3 µM (≈ 2.2 µg/mL)
MIC (E. coli ΔfhuA; MHBCA): 6.3 µM (≈ 2.2 µg/mL)
MIC (E. coli Δfiu; ID-MHBCA): 6.3 µM (≈ 2.2 µg/mL)
MIC (E. coli Δfiu; MHBCA): 6.3 µM (≈ 2.2 µg/mL)
bacterial inhibition, less than the control without antibiotic (E. coli MC4100; 4-h time point, MHBCA, inoculum 8.5 log10 CFU/mL): ~ 1.2 log10 CFU/mL
dCFU (Δlog10 CFU/mL, count with drug minus growth control) (E. coli MC4100; ID FALSE (MHBCA)): 0.02669 and 0.4114 and -0.0313
dCFU (Δlog10 CFU/mL, count with drug minus growth control) (E. coli MC4100; ID TRUE (ID-MHBCA)): -0.2509 and -0.1259 and -0.06378
MIC (K. pneumoniae ATCC 13883; [4]): 1.6 µM (≈ 0.56 µg/mL)
MIC (K. pneumoniae ATCC 13883; [5]): 1.6 µM
MIC (K. pneumoniae ATCC 13883; [6]): 3.1 µM
MIC ratio 0/1 (K. pneumoniae ATCC 13883; [7]): 2
MIC ratio 1/0 (K. pneumoniae ATCC 13883; [8]): 2
MIC with β-lactamase inhibitor (βI) (K. pneumoniae ATCC 13883; ID-MHBCA): 1.6 µM
MIC (K. pneumoniae ATCC 13883; MHBCA (+)): 1.6 µM (≈ 0.56 µg/mL)
MIC with β-lactamase inhibitor (βI) (K. pneumoniae ATCC 13883; MHBCA): 1.6 µM
MIC ([1]; P. aeruginosa 2302): > 200 µM
MIC (A. baumannii ATCC 19606; ID-MHBCA (−), 0 µg/mL supplemental iron, read-out: MIC): >200 µM
MIC (A. baumannii ATCC 19606; ID-MHBCA + 1 µg/mL supplemental iron, read-out: MIC): > 200 µM
MIC (A. baumannii ATCC 19606; ID-MHBCA, + 200 μg/mL APB, read-out: MIC with β-lactamase inhibitor (βI)): >200 µM
MIC (A. baumannii ATCC 19606; MHBCA (+), no inhibitor, read-out: MIC): >200 µM
MIC in combination with PAβN (A. baumannii ATCC 19606; MHBCA): > 200 µM
MIC (A. baumannii ATCC 19606; MHBCA, + 200 μg/mL APB, read-out: MIC with β-lactamase inhibitor (βI)): >200 µM
MIC ([2]; P. aeruginosa 1625): > 200 µM
MIC ([3]; P. aeruginosa 1624): > 200 µM
MIC (E. coli ATCC 25922; [5]): 3.1 µM
MIC (E. coli ATCC 25922; [6]): 3.1 µM
MIC ratio 0/1 (E. coli ATCC 25922; [7]): 2
MIC ratio 1/0 (E. coli ATCC 25922; [8]): 2
MIC (E. coli ATCC 25922; MHBCA (+)): 3.1 µM (≈ 1.08 µg/mL)
MIC (E. coli ATCC 25922; [9]): 1.6 µM (≈ 0.56 µg/mL)
MIC (E. coli lptD4213; lptD4213, ID-MHBCA (−)): 1.6 µM (≈ 0.56 µg/mL)
MIC (E. coli lptD4213; lptD4213, MHBCA (+)): 1.6 µM (≈ 0.56 µg/mL)

O=C(CCC(=O)N(CCCCNC(=O)c1cccc(O)c1O)CCCNC(=O)c1cccc(O)c1O)NCCCCCN(O)C(=O)CCCC(=O)NC(C(=O)NC1C(=O)N2C(C(=O)O)=C(Cl)CSC12)c1ccccc1 (stereo not shown) [MCEF, mixed ligand bis-catechol-mono-hydroxamate-cefaclor]
MIC (E. coli ΔcirA; Escherichia coli, ID-MHBCA): > 200 µM
MIC (E. coli ΔcirA; Escherichia coli, MHBCA): > 200 µM
MIC (E. coli ΔcirA; MHBCA): >200 µM
MIC (E. coli ΔfhuA; Escherichia coli, ID-MHBCA): > 200 µM
MIC (E. coli ΔfhuA; Escherichia coli, MHBCA): 13 µM (≈ 14.1 µg/mL)
MIC (E. coli Δfiu; Escherichia coli, ID-MHBCA): > 200 µM
MIC (E. coli Δfiu; Escherichia coli, MHBCA): 100 µM (≈ 108 µg/mL)
dCFU (Δlog10 CFU/mL, count with drug minus growth control) (E. coli MC4100; ID FALSE (MHBCA)): 0.157 and -0.07022 and 0.01569 and -0.00717
dCFU (Δlog10 CFU/mL, count with drug minus growth control) (E. coli MC4100; ID TRUE (ID-MHBCA)): 0.0557 and -0.2291 and -0.2621
MIC ratio unconjugated β-lactam/conjugate (K. pneumoniae ATCC 13883; ID-MHBCA): <0.016
MIC (K. pneumoniae ATCC 13883; [4]): >200 µM
MIC with β-lactamase inhibitor (βI) (K. pneumoniae ATCC 13883; ID-MHBCA): 200 µM
MIC (K. pneumoniae ATCC 13883; Klebsiella pneumoniae, ATCC13883, ID-MHBCA (−), 0 µg/mL supplemental iron): > 200 µM
MIC (K. pneumoniae ATCC 13883; Klebsiella pneumoniae, ATCC13883, ID-MHBCA + 1 µg/mL supplemental iron): > 200 µM
MIC (K. pneumoniae ATCC 13883; Klebsiella pneumoniae, ATCC13883, MHBCA (+)): > 200 µM
MIC ratio unconjugated β-lactam/conjugate (K. pneumoniae ATCC 13883; MHBCA): <0.016
MIC (K. pneumoniae ATCC 13883; MHBCA (+)): >200 µM
MIC with β-lactamase inhibitor (βI) (K. pneumoniae ATCC 13883; MHBCA): 13 µM
MIC ([1]; Pseudomonas aeruginosa): > 100 µM
MIC (A. baumannii ATCC 19606; Acinetobacter baumannii, ATCC19606, ID-MHBCA (−), 0 µg/mL supplemental iron, read-out: MIC): 0.2 µM (≈ 0.216 µg/mL)
MIC (A. baumannii ATCC 19606; Acinetobacter baumannii, ATCC19606, ID-MHBCA + 0.1 µg/mL supplemental iron, read-out: MIC): 1.6 µM
MIC (A. baumannii ATCC 19606; Acinetobacter baumannii, ATCC19606, ID-MHBCA + 1 µg/mL supplemental iron, read-out: MIC): > 6.3 µM
MIC (A. baumannii ATCC 19606; Acinetobacter baumannii, ATCC19606, ID-MHBCA, + 200 μg/mL APB, read-out: MIC with β-lactamase inhibitor (βI)): 0.012 µM
MIC (A. baumannii ATCC 19606; Acinetobacter baumannii, ATCC19606, MHBCA (+), no inhibitor, read-out: MIC): 1.6 µM (≈ 1.73 µg/mL)
MIC (A. baumannii ATCC 19606; Acinetobacter baumannii, ATCC19606, MHBCA, + 200 μg/mL APB, read-out: MIC with β-lactamase inhibitor (βI)): 0.4 µM
MIC ratio unconjugated β-lactam/conjugate (A. baumannii ATCC 19606; ID-MHBCA): >1024
MIC ratio 0/1 (A. baumannii ATCC 19606; [7]): > 32
MIC ratio 1/0 (A. baumannii ATCC 19606; [8]): > 32
MIC ratio unconjugated β-lactam/conjugate (A. baumannii ATCC 19606; MHBCA): >128
MIC in combination with PAβN (A. baumannii ATCC 19606; MHBCA): > 6.3 µM
MIC ([2]; Pseudomonas aeruginosa): > 100 µM
MIC ([3]; Pseudomonas aeruginosa): > 100 µM
MIC (E. coli ATCC 25922; Escherichia coli, ATCC25922, ID-MHBCA + 1 µg/mL supplemental iron): 25 µM
MIC (E. coli ATCC 25922; Escherichia coli, ATCC25922, MHBCA (+)): 6.3 to 25 µM (≈ 6.81 to 27 µg/mL)
MIC (E. coli ATCC 25922; Escherichia coli, ATCC25922, iron-deprived ID-MHBCA (−), 0 µg/mL supplemental iron): > 200 µM
MIC ratio unconjugated β-lactam/conjugate (E. coli ATCC 25922; ID-MHBCA): <0.016
MIC (E. coli ATCC 25922; [9]): >200 µM
MIC (E. coli lptD4213; Escherichia coli, LPTD4213, lptD4213, ID-MHBCA (−)): 1.6 µM (≈ 1.73 µg/mL)
MIC (E. coli lptD4213; Escherichia coli, LPTD4213, lptD4213, MHBCA (+)): 1.6 µM (≈ 1.73 µg/mL)

From publication PMC12592502, “Unraveling the mechanisms behind the enhanced efficacy of β-lactam-based sideromycins” (Communications Biology, 2025)
